Converted amounts (≈) assume the structure as drawn. “Also recorded” adds a separate entry of the source. Like-named read-outs stand apart in the source and are kept apart here. Blank lines part the entries; values can stand above or below the compound they belong to.
Legend:
E. faecalis ATCC®29212™ [1] = details: cited from earlier work
S. aureus ATCC®29213™ [2] = experiment: Antimicrobial susceptibility testing in water-in-oil droplets, microscope reading; format: cell-based, Staphylococcus aureus
Description: (§1) (at 30° C. for the C. albicans).

S. aureus ATCC®29213™ [3] = details: cited from earlier work
E. faecalis ATCC®29212™ [4] = experiment: Antimicrobial susceptibility testing in water-in-oil droplets, microscope reading; format: cell-based, Enterococcus faecalis
Description: as §1

[5] = test system: Escherichia coli (ATCC®25922™); experiment: as above; format: cell-based; details: for MIC: Escherichia coli, ATCC25922
Description: as §1

E. coli ATCC®25922 = details: cited from earlier work
C. albicans ATCC®24433™ [6] = details: cited from earlier work
C. albicans ATCC®24433™ [7] = experiment: Antifungal susceptibility testing in water-in-oil droplets, microscope reading; format: cell-based, Candida albicans
Description: as §1

[8] = test system: Aspergillus restrictus CECT 20807; experiment: Inhibition of mold growth outside the droplet aqueous phase, antifungal in oil phase; format: cell-based; details: 150 mg/L in the oil phase, 48 hours

Compound: CN[C@H](CC(C)C)C(=O)N[C@H]1C(=O)N[C@@H](CC(N)=O)C(=O)N[C@H]2C(=O)N[C@H]3C(=O)N[C@H](C(=O)N[C@H](C(=O)O)c4cc(O)cc(O)c4-c4cc3ccc4O)[C@H](O)c3ccc(c(Cl)c3)Oc3cc2cc(c3O[C@@H]2O[C@H](CO)[C@@H](O)[C@H](O)[C@H]2O[C@H]2C[C@](C)(N)[C@H](O)[C@H](C)O2)Oc2ccc(cc2Cl)[C@H]1O [Vancomycin]
Expected MIC (CLSI) (E. faecalis ATCC®29212™ [1]): 1 to 4 µg/mL
Growth in % of droplets (S. aureus ATCC®29213™ [2]; 0.25 mg/L, reading time 4 h): 25-50% of droplets
Growth in % of droplets (S. aureus ATCC®29213™ [2]; 0.25 mg/L, reading time 6 h): ~50% of the droplets
Growth in droplets (observation in words) (S. aureus ATCC®29213™ [2]; 0.5 mg/L, reading time 4 h): 1 droplet with cells
Growth in % of droplets (S. aureus ATCC®29213™ [2]; 0.5 mg/L, reading time 6 h): ~10% of droplets
Growth in droplets (observation in words) (S. aureus ATCC®29213™ [2]; 1 mg/L, reading time 6 h): No growth
Expected MIC (CLSI) (S. aureus ATCC®29213™ [3]): 0.25 to 1 µg/mL
Growth in % of droplets (E. faecalis ATCC®29212™ [4]; 0.25 mg/L, reading time 4 h): Growth in 25-50%
Growth in % of droplets (E. faecalis ATCC®29212™ [4]; 0.25 mg/L, reading time 6 h): Growth in 20-50%
Growth in % of droplets (E. faecalis ATCC®29212™ [4]; 0.5 mg/L, reading time 4 h): Growth in 25-30%
Growth in % of droplets (E. faecalis ATCC®29212™ [4]; 0.5 mg/L, reading time 6 h): ~30% of droplets
Growth in droplets (observation in words) (E. faecalis ATCC®29212™ [4]; 1 mg/L, reading time 4 h): Limited growth in
Growth in % of droplets (E. faecalis ATCC®29212™ [4]; 1 mg/L, reading time 6 h): Growth in 20-30%
Growth in droplets (observation in words) (E. faecalis ATCC®29212™ [4]; 2 mg/L, reading time 4 h): No growth
Growth in droplets (observation in words) (E. faecalis ATCC®29212™ [4]; 2 mg/L, reading time 6 h): No growth

Compound: C[C@@H]1[C@H](O)[C@@H](C)/C=C/C=C/C=C/C=C/C=C/C=C/C=C/[C@H](O[C@@H]2O[C@H](C)[C@@H](O)[C@H](N)[C@@H]2O)C[C@@H]2O[C@](O)(C[C@@H](O)C[C@@H](O)[C@H](O)CC[C@@H](O)C[C@@H](O)CC(=O)O[C@H]1C)C[C@H](O)[C@H]2C(=O)O [Amphotericin B]
Expected MIC (CLSI) (C. albicans ATCC®24433™ [6]): 0.25 to 1 µg/mL
Growth in % of droplets (C. albicans ATCC®24433™ [7]; 0.125 mg/L, reading time 4 h): 15-20% of
Growth in % of droplets (C. albicans ATCC®24433™ [7]; 0.25 mg/L, reading time 4 h): 15-20% of
Growth in % of droplets (C. albicans ATCC®24433™ [7]; 0.25 mg/L, reading time 6 h): 30-40% of the
Growth in droplets (observation in words) (C. albicans ATCC®24433™ [7]; 0.25 mg/L, reading time 24 h): Full growth
Growth in % of droplets (C. albicans ATCC®24433™ [7]; 0.5 mg/L, reading time 4 h): 15-20% of
Growth in % of droplets (C. albicans ATCC®24433™ [7]; 0.5 mg/L, reading time 6 h): ~30% of
Growth in % of droplets (C. albicans ATCC®24433™ [7]; 0.5 mg/L, reading time 24 h): ~20% of
Growth in droplets (observation in words) (C. albicans ATCC®24433™ [7]; 1 mg/L, reading time 4 h): Limited
Growth in droplets (observation in words) (C. albicans ATCC®24433™ [7]; 1 mg/L, reading time 6 h): Limited
Growth in droplets (observation in words) (C. albicans ATCC®24433™ [7]; 1 mg/L, reading time 24 h): Limited
Growth in droplets (observation in words) (C. albicans ATCC®24433™ [7]; 2 mg/L, reading time 6 h): Limited
Growth in droplets (observation in words) (C. albicans ATCC®24433™ [7]; 2 mg/L, reading time 24 h): Limited
Growth in droplets (observation in words) (C. albicans ATCC®24433™ [7]; 8 mg/L, reading time 24 h): 1-2 cells
Observed MIC (C. albicans ATCC®24433™ [7]; droplets at 30° C., read after 4, 6 (24) h): 2 to 4 µg/mL

Compound: O=C1OC2(c3cc(I)c(O)c(I)c3Oc3c2cc(I)c(O)c3I)c2c(Cl)c(Cl)c(Cl)c(Cl)c21 [rose bengal, 4,5,6,7-tetrachloro-2′,4′,5′,7′-tetraiodofluorescein]
Mold growth outside the aqueous phase [8]: the hyphae spreading was inhibited and mold growth was confined within the droplet; also recorded: inhibition of mold growth outside the aqueous phase

Compound: Colistin
Growth in % of droplets ([5]; 0.125 mg/L, reading time 4 h): Growth in 10-20% of
Growth in droplets (observation in words) ([5]; 0.25 mg/L, reading time 4 h): Limited growth in few
Growth in % of droplets ([5]; 0.25 mg/L, reading time 6 h): Growth in 20-30% of
Growth in droplets (observation in words) ([5]; 0.5 mg/L, reading time 4 h): Growth in 1 droplet
Growth in droplets (observation in words) ([5]; 1 mg/L, reading time 6 h): No growth
Observed MIC ([5]; droplets at 37° C., read after 4 and/or 6 h): 1 µg/mL
Expected MIC (CLSI) (E. coli ATCC®25922): 0.5 to 2 µg/mL

Now from value to compound, other results behind:

MIC ([5]; droplets at 37° C., read after 4 and/or 6 h, read-out: Observed MIC): 2 to 4 µg/mL (≈ 6.19 to 12.4 µM)
Compound: O=C(N[C@H](CO)[C@H](O)c1ccc([N+](=O)[O-])cc1)C(Cl)Cl [Chloramphenicol]
Growth in % of droplets ([5]; 0.5 mg/L, reading time 4 h): 30-50% of droplets
Growth in % of droplets ([5]; 1 mg/L, reading time 4 h): 20-30% of droplets
Growth in % of droplets ([5]; 1 mg/L, reading time 6 h): 30-50% of droplets
Growth in droplets (observation in words) ([5]; 2 mg/L, reading time 4 h): No growth
Growth in droplets (observation in words) ([5]; 2 mg/L, reading time 6 h): Limited growth in few
Growth in droplets (observation in words) ([5]; 4 mg/L, reading time 4 h): No growth
Growth in droplets (observation in words) ([5]; 4 mg/L, reading time 6 h): No growth
Growth in droplets (observation in words) ([5]; 8 mg/L, reading time 4 h): No growth
Expected MIC (CLSI) (E. coli ATCC®25922): 2 to 8 µg/mL

MIC ([5]; reading time 4 h, read-out: Observed MIC (4 h)): 1 µg/mL (≈ 3.44 µM)
MIC ([5]; reading time 6 h, read-out: Observed MIC (6 h)): 2 µg/mL (≈ 6.89 µM)
Compound: COc1cc(Cc2cnc(N)nc2N)cc(OC)c1OC [Trimethoprim]
Growth in droplets (observation in words) ([5]; 0.125 mg/L, reading time 4 h): Limited growth in few
Growth in droplets (observation in words) ([5]; 0.25 mg/L, reading time 4 h): Limited growth in few
Growth in % of droplets ([5]; 0.25 mg/L, reading time 6 h): Growth in 20-30% of
Growth in droplets (observation in words) ([5]; 0.5 mg/L, reading time 4 h): One or few small
Growth in droplets (observation in words) ([5]; 0.5 mg/L, reading time 6 h): Limited growth in few
Growth in droplets (observation in words) ([5]; 1 mg/L, reading time 4 h): No growth
Growth in droplets (observation in words) ([5]; 1 mg/L, reading time 6 h): Limited growth in few
Growth in droplets (observation in words) ([5]; 2 mg/L, reading time 4 h): No growth
Growth in droplets (observation in words) ([5]; 2 mg/L, reading time 6 h): No growth (one small
Expected MIC (CLSI) (E. coli ATCC®25922): 0.5 to 2 µg/mL

— patent publication US11952610B2, “Digital microbiology” (priority 2016, dated 2024)
